# Measured values as given in patent US20230293451A1, “STIMULATION OF HAIR GROWTH” (The General Hospital Corporation, priority 2020, published 2023).
# “Also recorded” adds a separate entry of the source.
# What was measured:
# [1] = test system: mouse skin with hair follicles arrested in telogen; experiment: Topical administration of novel compounds to pre-sensitized mice (Example 2); type: in vivo, C57BL/6 mice; details: pre-sensitized with 2% on chest; 2% topical on days 3, 5 and 7; images day 17
# Source text: In order to compare the effect of SABDE, CF3-SABDE or CC1-SABDE (see FIG. 2a) on hair growth, 3 female C57BL/6 mice, 8 weeks old, were pre-sensitized with 2% of each compound on the chest 4 days before the first treatment and both flanks were shaved (Day 0). On days 3, 5, and 7, 2% of SABDE, CF3-SABDE or CC1-SABDE was topically administered to the shaved left flank of one mouse each using a cotton-tipped applicator. Images were taken on day 17 in order to visualize hair growth and inflammation (see FIGS. 2B and 2C).
# [2] = test system: hair growth in shaved mice; experiment: Hair growth in animal models after topical delivery of hapten derivatives (general statements); type: in vivo
# [3] = test system: mouse skin with hair follicles arrested in telogen; experiment: Comparison of 100 mM SADBE and CF3-SADBE topical treatment (Examples 3 and 5); type: in vivo, C57BL/6 mice; details: 100 mM topical; for visible anagen: by day 10; for anagen induction / visible inflammation: by day 14; for hair growth on the treated flank: by day 17
# Source text: (§1) To measure the effect of SABDE and DPCP (see FIG. 1a) on hair growth, 6 female C57BL/6 mice, 8 weeks old, were shaved on both flanks 4 days before topical administration of the compounds (Day −4). During this period, the mice were visually monitored to confirm absence of hair growth and to confirm the entire shaved area is arrested in the telogen phase as expected from 8 weeks old mice. On the day of administration (day 0), 2% SABDE or 2% DCPC was topically administered to the shaved left flank of 3 mice each using a cotton-tipped applicator (see FIG. 1B). Images were taken on day 9 and day 16 in order to visualize hair growth and inflammation (see FIG. 1c). Skin pigmentation intensity was quantified by ImageJ. The anagen induction index is calculated as the change in skin pigmentation intensity (a marker of anagen) on the treated side relative to (i.e., as a percent of) the untreated side (see FIG. 1d).
# (§2) The anagen induction index can be determined by any methods known in the art, including, for example, histological methods (e.g., H&E, other stains, or without stains) and/or other visual morphology methods. (e.g., methods to measure the biological parameters of hair growth. This value is then normalized to the specific experiment (individual mice) and shown as relative anagen induction by skin pigmentation intensity (a marker of anagen) on the treated side as a percent of the baseline untreated side. Analysis of the anagen (or other phases) can be performed by any method known in the art, including, e.g., a tissue biopsy and/or morphological analysis.
# (§3) Inflammation can be measured by known methods such as histological grading, visual identification, and quantification of lesions. The number, size, and extent of the cutaneous lesions present (e.g., see blue * in FIG. 3a) can be visualized and quantified using any known method in the art, including, for example, histological methods (e.g., H&E, other stains, or without stains) and/or other visual morphology methods.
# The effects of a topical treatment dose of SADBE or CF3-SADBE were measured using the methods describe in Example 1. In FIG. 3, the topical treatment dose used was 50 uL of 100 mM SADBE or CF3-SADBE.
# The effects on anagen induction and inflammation of topical treatment with CF3-SADBE at 100 mM were measured and visualized using the methods described in Example 1.
# [4] = test system: resting telogen hair follicles; experiment: Induction of anagen phase by CF3-SADBE, H&E staining of treated skin (Example 4); type: in vivo, mouse; details: 100 uL of 100 mM on left flank; right flank untreated
# Source text: as §1
# The effects of a topical treatment dose of CF3-SADBE was measured and visualized using the methods described in Example 1. The gross appearance of the mouse treated with CF3-SADBE was imaged (see FIG. 4a). CF3-SADBE was administered on the left flank at a dose of 100 uL of 100 mM CF3-SADBE (see FIG. 4B). The right flank was left untreated (see FIG. 4C).
# [5] = test system: mouse skin with hair follicles arrested in telogen; experiment: Topical administration of SADBE and DPCP to shaved flank of mice (Example 1); type: in vivo, C57BL/6 mice; details: for induction of anagen and hair growth: 2% topical, single administration day 0 to shaved left flank, images day 9 and day 16; for hair growth in a mammal without an autoimmune disease: mouse, in vivo
# Source text: as §1, §2, §3
Structure (SMILES),anagen and hair growth [1],inflammation [1],efficacy as measured by time of anagen induction [2],inflammation relative to known treatments [2],"hair growth promoting activity ([2]; animal models, after prior shaving)",visible anagen [3],anagen induction [3],visible inflammation [3],hair growth on the treated flank [3],hair follicle phase in treated skin (H&E staining) [4],induction of anagen and hair growth [5],hair growth in a mammal without an autoimmune disease [5]
O=c1c(OCCCCCl)c(OCCCCCl)c1=O [CC1-SABDE],neither produced inflammation nor anagen and hair growth,neither produced inflammation nor anagen and hair growth,–,–,–,–,–,–,–,–,–,–
"O=c1c(OCCCC(F)(F)F)c(OCCCC(F)(F)F)c1=O [CF3-SADBE, squaric acid di(trifluromethyl)propyl ester]",induce anagen and hair growth at least as efficiently as SADBE,less inflammation,earlier induction of anagen,less inflammation than known treatments; also recorded: somewhat diminished inflammation,accelerated hair growth relative to known treatments,induced visible anagen,induces anagen,much less visible inflammation,Robust hair growth,hair follicles in anagen,–,–
"O=c1c(-c2ccccc2)c1-c1ccccc1 [DPCP, diphenylcyclopropenone]",–,–,–,–,–,–,–,–,–,–,induction of anagen and hair growth,increased hair growth
CCCCOc1c(OCCCC)c(=O)c1=O [SADBE],–,inflammation in the SADBE treated flank,–,–,–,does not; also recorded: did not induce visible anagen,induces anagen,substantial inflammation; also recorded: more visible inflammation,Robust hair growth,–,induction of anagen and hair growth,"increased (e.g., promoted) hair growth"
